One block for each compound: values may come before it.
Tests used:
[1] = Oral bioavailability in monkey; type: ADME, organism-based, Macaca mulatta; settings: rhesus monkey, in vivo
[2] = test system: Human immunodeficiency virus 1; assay: Antiviral activity against R5 tropic Human immunodeficiency virus 1; type: functional, organism-based
physchem = settings: octanol/water
Description: Lipophilicity, log P of the compound

[3] = molecular target: C-C chemokine receptor type 5 (Homo sapiens, UniProt P51681)
[4] = molecular target: T1, Muscarinic acetylcholine receptor M2 (Homo sapiens, UniProt P08172)
T1 sequence (P08172 whole entry): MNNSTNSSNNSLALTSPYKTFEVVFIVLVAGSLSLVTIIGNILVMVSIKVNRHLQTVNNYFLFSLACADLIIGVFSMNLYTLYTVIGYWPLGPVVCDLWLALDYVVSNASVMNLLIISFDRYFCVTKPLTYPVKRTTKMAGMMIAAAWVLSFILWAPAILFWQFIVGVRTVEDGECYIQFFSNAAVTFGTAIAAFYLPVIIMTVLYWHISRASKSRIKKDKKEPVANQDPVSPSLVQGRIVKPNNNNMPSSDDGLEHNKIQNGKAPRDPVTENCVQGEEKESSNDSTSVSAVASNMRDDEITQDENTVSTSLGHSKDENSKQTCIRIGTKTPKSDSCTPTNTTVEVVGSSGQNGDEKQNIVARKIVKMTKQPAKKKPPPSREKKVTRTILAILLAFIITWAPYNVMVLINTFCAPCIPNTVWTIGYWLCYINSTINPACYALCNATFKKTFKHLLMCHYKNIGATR
Description: Binding affinity to muscarinic M2 receptor

[5] = molecular target: T2, C-C chemokine receptor type 1 (Homo sapiens, UniProt P32246)
T2 sequence (P32246 whole entry): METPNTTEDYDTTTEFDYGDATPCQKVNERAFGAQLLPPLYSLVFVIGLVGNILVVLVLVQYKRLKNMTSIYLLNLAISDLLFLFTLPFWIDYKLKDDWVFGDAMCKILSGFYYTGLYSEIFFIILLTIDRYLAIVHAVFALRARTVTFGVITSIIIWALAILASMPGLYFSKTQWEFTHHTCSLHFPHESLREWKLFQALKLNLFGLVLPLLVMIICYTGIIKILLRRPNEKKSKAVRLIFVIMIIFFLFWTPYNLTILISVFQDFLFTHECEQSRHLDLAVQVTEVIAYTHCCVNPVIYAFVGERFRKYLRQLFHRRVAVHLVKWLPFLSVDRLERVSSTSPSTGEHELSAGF

[6] = molecular target: C-C chemokine receptor type 2 (Homo sapiens, UniProt P41597)
Histamine H1 receptor [7] = molecular target: T3, Histamine H1 receptor (Homo sapiens, UniProt P35367); assay: Binding affinity to histamine H1 receptor
Thromboxane A2 receptor = molecular target: T4, Thromboxane A2 receptor (Homo sapiens, UniProt P21731)
T4 sequence (P21731 whole entry): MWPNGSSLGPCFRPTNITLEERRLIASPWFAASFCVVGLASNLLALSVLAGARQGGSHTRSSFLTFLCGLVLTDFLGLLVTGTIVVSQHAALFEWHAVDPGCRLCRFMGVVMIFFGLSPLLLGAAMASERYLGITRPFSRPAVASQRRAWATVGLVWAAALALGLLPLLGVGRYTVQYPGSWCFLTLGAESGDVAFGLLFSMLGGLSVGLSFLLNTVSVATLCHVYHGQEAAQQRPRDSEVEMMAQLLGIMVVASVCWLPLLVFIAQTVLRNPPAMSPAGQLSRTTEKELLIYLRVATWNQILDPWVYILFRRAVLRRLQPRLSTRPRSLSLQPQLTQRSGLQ
Description: Binding affinity to TXA2 receptor receptor

[8] = octanol/water
Description: Lipophilicity, log P of the compound

[9] = Half life in dog; type: ADME, organism-based, Canis lupus familiaris; settings: in vivo
[10] = molecular target: T5, C-C chemokine receptor type 3 (Homo sapiens, UniProt P51677)
T5 sequence (P51677 whole entry): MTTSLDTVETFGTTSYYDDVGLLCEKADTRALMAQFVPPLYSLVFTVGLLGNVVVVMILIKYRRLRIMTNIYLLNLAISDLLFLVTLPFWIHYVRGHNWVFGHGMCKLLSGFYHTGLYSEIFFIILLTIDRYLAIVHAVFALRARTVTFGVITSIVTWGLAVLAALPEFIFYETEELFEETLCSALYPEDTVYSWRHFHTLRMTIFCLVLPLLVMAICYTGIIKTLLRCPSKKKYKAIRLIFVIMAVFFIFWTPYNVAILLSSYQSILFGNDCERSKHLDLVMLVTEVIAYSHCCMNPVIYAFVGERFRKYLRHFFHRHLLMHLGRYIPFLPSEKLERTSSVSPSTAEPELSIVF

[11] = Oral bioavailability in dog; type: ADME, organism-based, Canis lupus familiaris; settings: in vivo
Histamine H1 receptor [12] = molecular target: T3, Histamine H1 receptor; assay: Antagonist activity at histamine H1 receptor expressed in human PC3 cells inhibition of histamine-induced calcium influx by cell based assay; type: functional, PC-3
[13] = molecular target: T5, C-C chemokine receptor type 3; assay: Antagonist activity at human CCR3 assessed as inhibition of CCL11-induced calcium influx by cell based assay; type: functional
[14] = test system: Human immunodeficiency virus 1; assay: Antiviral activity against Human immunodeficiency virus 1 ADA; type: functional, organism-based

C-C chemokine receptor type 5, sequence (P51681 whole entry): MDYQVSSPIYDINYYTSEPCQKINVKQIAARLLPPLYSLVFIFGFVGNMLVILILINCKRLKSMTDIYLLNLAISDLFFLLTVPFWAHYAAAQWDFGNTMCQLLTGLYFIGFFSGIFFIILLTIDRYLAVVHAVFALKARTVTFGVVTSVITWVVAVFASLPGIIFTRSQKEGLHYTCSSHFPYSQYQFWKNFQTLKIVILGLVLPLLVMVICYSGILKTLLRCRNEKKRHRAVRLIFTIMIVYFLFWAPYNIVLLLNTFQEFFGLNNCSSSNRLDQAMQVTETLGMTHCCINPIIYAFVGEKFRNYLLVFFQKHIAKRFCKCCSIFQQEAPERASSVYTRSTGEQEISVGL
T3 sequence (P35367 whole entry): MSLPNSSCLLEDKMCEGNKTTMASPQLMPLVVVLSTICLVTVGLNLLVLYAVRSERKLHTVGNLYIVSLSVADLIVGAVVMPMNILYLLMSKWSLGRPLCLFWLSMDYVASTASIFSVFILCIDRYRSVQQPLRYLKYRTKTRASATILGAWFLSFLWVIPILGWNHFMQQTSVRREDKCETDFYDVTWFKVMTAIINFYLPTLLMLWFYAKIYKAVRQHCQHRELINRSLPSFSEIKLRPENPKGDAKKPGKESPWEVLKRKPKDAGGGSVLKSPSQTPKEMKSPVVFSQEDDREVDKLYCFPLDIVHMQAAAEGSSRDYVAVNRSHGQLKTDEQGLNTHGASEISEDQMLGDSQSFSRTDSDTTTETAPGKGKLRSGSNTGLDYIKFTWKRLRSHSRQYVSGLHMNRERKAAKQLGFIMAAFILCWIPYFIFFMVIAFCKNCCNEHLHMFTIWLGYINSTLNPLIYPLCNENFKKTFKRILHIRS
C-C chemokine receptor type 2, sequence (P41597 whole entry): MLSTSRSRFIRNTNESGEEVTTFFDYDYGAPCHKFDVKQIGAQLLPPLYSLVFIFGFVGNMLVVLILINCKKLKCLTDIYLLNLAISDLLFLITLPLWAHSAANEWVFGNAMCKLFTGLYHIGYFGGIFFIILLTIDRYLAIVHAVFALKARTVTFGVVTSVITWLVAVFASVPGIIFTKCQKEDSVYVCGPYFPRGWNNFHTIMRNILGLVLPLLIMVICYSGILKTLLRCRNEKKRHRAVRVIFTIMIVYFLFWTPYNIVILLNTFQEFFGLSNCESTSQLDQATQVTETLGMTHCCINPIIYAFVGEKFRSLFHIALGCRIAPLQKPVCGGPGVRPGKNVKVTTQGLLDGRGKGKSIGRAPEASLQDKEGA

SMILES: NCC1CCCN(C(=O)c2ccc3c(c2)C(C(=O)NC2CCN(C/C4=C/CCCCCCC4)CC2)c2ccccc2O3)C1 (stereo not given)
Ki [5]: 1.8 nM

SMILES: CCN(C(=O)Cc1ccc(S(C)(=O)=O)cc1)C1CCN(CC[C@@H](c2cc(F)cc(F)c2)C2CCC(S(C)(=O)=O)CC2)CC1 (stereo not given in full) [AZD-5363]
IC50 [3]: 0.17 nM
logP (physchem): 3.1

SMILES: c1cc(CN2CCCNCCNCCCNCC2)ccc1CN1CCCNCCNCCCNCC1 [PLERIXAFOR]
logP [8]: -0.4

SMILES: Cc1nnc(C(=O)NC(C)(C)c2nc(C(=O)NCc3ccc(F)cc3)c(O)c(=O)n2C)o1
Ki [5]: 5 nM
logP (physchem): 2.4

SMILES: NC(=O)c1ccc(CNC(=O)NC[C@@H]2CN(Cc3ccc(Cl)c(Cl)c3)CCO2)cc1
half-life [9]: 2.8 h
IC50 [10]: 10 nM
bioavailability [11]: 89%
logP (physchem): 2.2

SMILES: CCO/N=C(\c1ccc(Br)cc1)C1CCN(C2(C)CCN(C(=O)c3c(C)cc[n+]([O-])c3C)CC2)CC1 [ANCRIVIROC]
Ki [3]: 2 nM
IC50 [14]: 0.6 nM

SMILES: CC[C@@H](Nc1c(Nc2cccc(C(=O)N(C)C)c2O)c(=O)c1=O)c1ccc(C)o1 [NAVARIXIN ANHYDROUS]
logP (physchem): 1

Next, values leading:

bioavailability [1]: 30%
IC50 [2]: 0.1 nM
logP (physchem): 3.8
SMILES: CCCCN1C(=O)[C@@H]([C@H](O)C2CCCCC2)NC(=O)C12CCN(Cc1ccc(Oc3ccc(C(=O)O)cc3)cc1)CC2 [APLAVIROC]

Ki [3]: 66 nM
Ki [4]: 1320 nM
SMILES: CC(C)(O)CC[C@H](C[C@H](O)[C@H](Cc1cccc(F)c1)NC(=O)c1cnc2ccccc2n1)C(N)=O

IC50 [6]: 5 nM
SMILES: Cc1cnc(C(=O)c2ncnc3[nH]ccc23)c(NS(=O)(=O)c2ccc(Cl)c(C(F)(F)F)c2)c1 [ILACIRNON]

logP (physchem): 3.8
SMILES: CCOc1ccc(-n2c([C@@H](C)N(Cc3cccnc3)C(=O)Cc3ccc(OC(F)(F)F)cc3)nc3ncccc3c2=O)cc1

Ki (Histamine H1 receptor [7]): 20 nM
Ki (Thromboxane A2 receptor): 740 nM
SMILES: O=C(O)Cc1ccc2c(c1)/C(=C/CN1CCCC(Cc3ccccc3)C1)c1ccccc1CO2 (stereo not given)

Ki (Thromboxane A2 receptor): 15 nM
SMILES: O=C(O)Cc1ccc2c(c1)/C(=C/Cn1cnc3ccccc31)c1ccccc1CO2

Ki (Histamine H1 receptor [12]): 47 nM
Ki [13]: 1.8 nM
SMILES: Cc1ccc(C(=O)N2CCC(=CC(=O)N[C@@H]3CCN(Cc4ccc5cc(F)ccc5c4)C3)CC2)nn1

From ChEMBL document CHEMBL2176887, “Chemokine receptor antagonists” (J Med Chem, 2012)
